pIC50: −log10 of the molar value.

In experiment [1] the test system is human cervical tumor cell line HeLa (ATCC CCL-2). Nature of the experiment: SAC-Formation - Nocodazole-Induced Assay. The experiment is classed as cell-based. The following applies: Homo sapiens, HeLa, 24 h, HeLa cells, nocodazole 0.1 μg/ml together with test compound, decrease of mitotic cells (phospho-histone H3 Ser10). The method in brief: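 HeLa cells, plated overnight, were treated 24 h at 37 °C with nocodazole (0.1 μg/ml final) plus test compound (0.005–20 μM, 0.5% DMSO) added at the same time. After fixation, anti-phospho-histone H3 Ser10 and Hoechst staining gave the mitotic cell fraction by imaging. Values came from four-parameter Hill fits.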

For experiment [2] the test system is unchanged. Nature of the experiment: SAC-Formation - Paclitaxel-Induced Assay. The settings on record: Homo sapiens, HeLa, 24 h, HeLa cells, paclitaxel 0.05 μM, test range 0.005 μM-20 μM, read-out: IC50 [mol/l] SAC-Formation - Paclitaxel-Induced Assay. Type of experiment: cell-based. In outline:
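HeLa cells incubated overnight at 37° C, then given paclitaxel (0.05 μM final) plus test compound (0.005–20 μM, 0.5% DMSO) together for 24 h at 37° C. Fixed cells stained for phospho-histone H3 Ser10 (mitotic cells) and Hoechst 33342 (cell count); imaging-derived mitotic index fitted by four-parameter Hill equation.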

As for `Cc1nsc(Nc2cnc(C(F)(F)F)cn2)c1C(=O)Nc1ccc(OC2CCCN(C(CF)CF)C2)nc1` (stereo not drawn) [Example 333, N-(6-{[1-(1,3-difluoropropan-2-yl)piperidin-3-yl]oxy}pyridin-3-yl)-3-methyl-5-{[5-(trifluoromethyl)pyrazin-2-yl]amino}-1,2-thiazole-4-carboxamide], the pIC50 in experiment [1] is 7.14; in experiment [2] it was 6.70.

For `Cc1nsc(Nc2cnc(C(F)(F)F)cn2)c1C(=O)Nc1ccc(F)c(OCC2CCCN(CC(F)F)C2)c1` (stereo not drawn) [Example 334, N-(3-{[1-(2,2-difluoroethyl)piperidin-3-yl]methoxy}-4-fluorophenyl)-3-methyl-5-{[5-(trifluoromethyl)pyrazin-2-yl]amino}-1,2-thiazole-4-carboxamide], the results for the pIC50 in experiment [1] and in experiment [2] were 7.33 and 7.25, respectively.

As for `Cc1nsc(Nc2cnc(C(F)(F)F)cn2)c1C(=O)Nc1ccc(F)c(OCC2CCCN(CCF)C2)c1` (stereo not drawn) [Example 336, N-(4-fluoro-3-{[1-(2-fluoroethyl)piperidin-3-yl]methoxy}phenyl)-3-methyl-5-{[5-(trifluoromethyl)pyrazin-2-yl]amino}-1,2-thiazole-4-carboxamide], the pIC50 in experiment [1] is 7.31; in experiment [2] it was 7.21.

For the molecule `Cc1nsc(Nc2cnc(C(F)(F)F)cn2)c1C(=O)Nc1ccc(F)c(OCC2CCCN(CC(F)(F)F)C2)c1` (stereo not drawn) [Example 337, N-(4-fluoro-3-{[1-(2,2,2-trifluoroethyl)piperidin-3-yl]methoxy}phenyl)-3-methyl-5-{[5-(trifluoromethyl)pyrazin-2-yl]amino}-1,2-thiazole-4-carboxamide], the pIC50 is 7.21 in experiment [1] and 7.29 in experiment [2].

In the case of `Cc1nsc(Nc2cnc(C(F)(F)F)cn2)c1C(=O)Nc1ccc(F)c(OCC2CCCN(CCC(F)(F)F)C2)c1` (stereo not drawn) [Example 338, N-(4-fluoro-3-{[1-(3,3,3-trifluoropropyl)piperidin-3-yl]methoxy}phenyl)-3-methyl-5-{[5-(trifluoromethyl)pyrazin-2-yl]amino}-1,2-thiazole-4-carboxamide], the pIC50 is 7.57 in experiment [1] and 7.10 in experiment [2].

For the molecule `Cc1nsc(Nc2cnc(C(F)(F)F)cn2)c1C(=O)Nc1ccc(F)c(OC[C@@H]2CCN(CC(F)(F)F)C2)c1` [Example 339, N-(4-fluoro-3-{[(3R)-1-(2,2,2-trifluoroethyl)pyrrolidin-3-yl]methoxy}phenyl)-3-methyl-5-{[5-(trifluoromethyl)pyrazin-2-yl]amino}-1,2-thiazole-4-carboxamide], the pIC50 in experiment [1] was 7.40; in experiment [2], 7.92.

Take `Cc1nsc(Nc2cnc(C(F)(F)F)cn2)c1C(=O)Nc1ccc(F)c(OC[C@@H]2CCN(CCC(F)(F)F)C2)c1` [Example 340, N-(4-fluoro-3-{[(3R)-1-(3,3,3-trifluoropropyl)pyrrolidin-3-yl]methoxy}phenyl)-3-methyl-5-{[5-(trifluoromethyl)pyrazin-2-yl]amino}-1,2-thiazole-4-carboxamide]: the pIC50 in experiment [1] was 7.48; in experiment [2] it was 7.46.

For `Cc1nsc(Nc2cnc(C(F)(F)F)cn2)c1C(=O)Nc1ccc(F)c(OC[C@@H]2CCCN(CC(F)F)C2)c1` [Example 341, N-(3-{[(3R)-1-(2,2-difluoroethyl)piperidin-3-yl]methoxy}-4-fluorophenyl)-3-methyl-5-{[5-(trifluoromethyl)pyrazin-2-yl]amino}-1,2-thiazole-4-carboxamide], the pIC50 in experiment [1] was 7.57; in experiment [2] it was 7.43.

Consider `Cc1nsc(Nc2cnc(C(F)(F)F)cn2)c1C(=O)Nc1ccc(F)c(OC[C@@H]2CCCN(CC(F)(F)F)C2)c1` [Example 342, N-(4-fluoro-3-{[(3R)-1-(2,2,2-trifluoroethyl)piperidin-3-yl]methoxy}phenyl)-3-methyl-5-{[5-(trifluoromethyl)pyrazin-2-yl]amino}-1,2-thiazole-4-carboxamide], for which the pIC50 is 7.14 in experiment [1] and 6.96 in experiment [2].

The values are drawn from patent US20170334899A1, “AMINO-SUBSTITUTED ISOTHIAZOLES” (Bayer Pharma Aktiengesellschaft, priority 2014, published 2017).
